Experiments:
[1] = test system: Hs822t Ewing's sarcoma of bone tumor cells; experiment: Assay of cell number (MTT), Hs822t cells; assay type: cell-based; conditions: 1-mM, seventy-two hours
Description: Methods: Human bone marrow was collected from consenting adult patients undergoing either an elective primary proximal femoral total hip arthroplasty or elective primary distal femoral total knee arthroplasty (n=6, mean age 65) as a part of an IRB approved study. Human MSC were derived from the adherent fraction of whole bone marrow aspirates. Ewing's sarcoma tumor cells (RDES, Hs822 and Hs863) and SaOS2 osteosarcoma tumor cells were obtained from ATCC. Cells were maintained in Dulbecco's Modification of Eagle's Media (DMEM) containing 10% fetal calf serum (v/v) and 1% penicillin-streptomycin-glutamine (PSG; Cellgro, Mediatech).
(§1) Assay of Cell Number: Following the addition of 1-mM naloxone or 1-mM naltrexone, viable cell number was determined with the MTT assay. After 72-hours and 120-hours, MTT (5 mg/ml (w/v), Sigma) was added to each well, incubated for 2-hours, after which the cells lysed with 500-μl of DMSO (Sigma). MTT was measured at 570-nm and the effects of therapy on cell proliferation were determined by normalizing treated wells relative to mean values from non-treated wells: Fold change in cell number=100*[treated cells optical density/mean control optical density].

[2] = test system: unicortical defect in mouse tibia; experiment: Opioid antagonist containing collagen implant in unicortical defect model, microCT; assay type: in vivo, C57BL/6 mice; conditions: 7 days after surgery
Description: Implantation of Opioid Antagonist Containing Collagen Implant into a Unicortical Defect Model: Male 5-week old C57BL/6 mice (n=5 per treatment group for a total of 25 total animals) were used in this study. […] Unicortical defects were surgically administered through a small incision (approximately 3-mm) made just below the knee joint, located on the medial side of the tibia just below the tibial tuberosity on the tibial crest. In 5-weeks old male mice, the physeal plate is clearly visible and the drill bit was placed approximately 1-mm below this point. The drill-bit produces a unicortical defect with dimensions 300-μm diameter×1-mm depth. […] In parallel, a separate group of animals served as non-surgical controls. Mice were euthanized 7-days after surgery, hind limbs were collected and tibias were prepared for micro-CT (μCT) analysis.
MicroCT Analysis of Unicortical Defects: High-resolution images of the tibia were acquired with μCT imaging system (μT40; Scanco Medical). Tibias were scanned at 45-keV with an isotropic voxel size of 12-μm. An analysis region was selected from axial sections to include the entire unicortical defect bounded by the endosteal cortical wall. The volume corrected bone volume (bone volume/total volume; By/Tv), trabecular number (TbN) and trabecular thickness (TbTh) were calculated using the Scanco software.

[3] = test system: monocytes cultured to become osteoclasts; experiment: TRAP staining and assay of osteoclast number; assay type: cell-based, human, mouse
Description: TRAP Staining and the Assay of Osteoclast Number: Osteoclasts were derived from either an enriched population of human monocytes or from mouse non-enriched whole bone marrow aspirates. Three human patient bone marrow samples were assayed in parallel with samples collected from 3-week (n=10) mouse bone marrow. The monocyte fraction was stimulated to become osteoclasts by culturing 1×10^6 cells with 25-ng/mL of MCSF and 25-ng/mL of recombinant human or mouse RANK-ligand (R&D Systems) in the presence of the met5-ligand ([5-μM] 2.87-, or [50-μM] 28.7-μg; Sigma), naloxone (400-ng or 400-μg; Sigma) or naltrexone (378-ng or 378-μg; Sigma). Osteoclasts were stained with tartrate resistant acid phosphatase (TRAP; Sigma Leukocyte Acid Phosphatase Kit 387-A) and counted when cells stained TRAP-positive and had at least three nuclei. Estimates of osteoclast number were obtained by Cavalieri sampling and a modification of the fractionator technique.

[4] = test system: posterolateral lumbar spine; experiment: Rat posterolateral spinal fusion of L5-L6 vertebrae, microCT; assay type: in vivo, Sprague-Dawley rats; conditions: 2-months
Description: Rat Posterolateral Spinal Fusion of L5-L6 Vertebrae: 20 male, […] skeletally mature Sprague-Dawley rats underwent bilateral lumbar posterolateral spinal fusion at the L5-L6 vertebrae. […] Under sterile conditions a 2-cm long posterior midline incision centered at L5-L6 vertebrae was made. A muscle-splitting approach was used, lateral to the facet joints, to expose the transverse processes of a particular vertebra. A high-speed 1-mm burr was used to decorticate the transverse processes of the L5-L6 vertebrae. Implants were prepared and implanted between the transverse processes bilaterally in the paraspinal muscle bed. […] Animals were euthanized 2-months (n=5 rats per time point per treatment group for a total of n=20 rats) spines were collected and prepared for micro-CT (μCT) analysis.

monocyte cultures = experiment: Assay of cell number (MTT) in monocyte cultures; assay type: cell-based, human; conditions: naloxone added to monocyte cultures
Description: Methods: Human Bone Marrow was Collected from Consenting Adult Patients undergoing either an elective primary proximal femoral total hip arthroplasty or elective primary distal femoral total knee arthroplasty (n=6, mean age 65) as a part of an IRB approved study. Human MSC were derived from the adherent fraction of cells derived from each whole bone marrow aspirate collected, while the monocyte population was collected from the non-adherent fraction of the bone marrow. The monocyte fraction was enriched through sub-culture with 100-ng/mL recombinant human macrophage colony-stimulating factor (MCSF; Wyeth). In parallel experiments described below, the femurs from 3-week (n=10) and 16-week (n=20) old male mice were collected and then the bone marrow was flushed from the femur according to the following: A 21-gauge needle was inserted into the femoral intramedular canal after the removal of the proximal and distal ends of the femur. […]
as §1, with “After 72-hours and 120-hours, MTT (5 mg/ml (w/v), Sigma) was added to each well, incubated for 2-hours, after which the cells lysed with 500-μl of DMSO (Sigma).” left out

[5] = collagen implant, 25-ng BMP2, 1-mM naltrexone or 1-mM naloxone

## C=CCN1CC[C@]23c4c5ccc(O)c4O[C@H]2C(=O)CC[C@@]3(O)[C@H]1C5 [naloxone]
[1]
  Hs822t tumor cell number relative to control cultures: no effect
[2]; 1-mM naloxone with collagen implant
  increase in trabecular thickness relative to all other treatment groups: approximately 37%
[2]; collagen implant
  Bv/Tv relative to non-surgical controls: increased relative to non-surgical controls
  trabecular thickness (TbTh) relative to the control non-surgical group: increased within the defect significantly
[2]; collagen implant, 1-mM
  increase in Bv/Tv relative to BMP2 treatment group: 18.2%
[2]; [5]
  increase in Bv/Tv relative to the PBS treated group: 56.5%
  increase in Bv/Tv relative to the surgical control group: 83.8%
[3]; 1-mM
  osteoclast number (TRAP staining): reduced osteoclast number substantially
[3]; 1-μM
  osteoclast number (TRAP staining): did not significantly reduce osteoclast number
[4]; collagen sponge implant, 25-ng BMP2 or 1-mM naloxone
  bone formation in the lumbar spine versus collagen implants alone: increased bone formation over the collagen implants alone
[4]; naloxone infused collagen implant, 1-mM
  Bv/Tv relative to spines implanted with collagen or the control sham surgery group: substantial increase in By/Tv
Monocyte cultures
  proliferation (cell number) in monocyte cultures: decreased proliferation

— patent publication US12258561B2, “Compositions and methods to promote bone formation and their uses including for the treatment of cancer” (THE RESEARCH FOUNDATION FOR THE STATE UNIVERSITY OF NEW YORK, priority 2014, dated 2025)
